Reference: US10717718B2 (priority 2015, dated 2020)
Entries after “also recorded” stand apart in the source; their conditions may differ.

How the values were obtained:
Format in all cases: cell-based
Escherichia coli O13 = tested on: Escherichia coli O13
[1] = tested on: Legionella gormanii (Fluoribacter gormanii)
Escherichia coli K12 = conditions: E. coli K12; 10 mM compound, 37° C., 18 hours; click with CR110-CCH; confocal microscopy
[2] = tested on: Legionella pneumophila serogroup 1; conditions: 10 mM compound, 37° C., 24 hours, click with CR110-CCH, confocal microscopy

Row | SMILES | detection / labelling signal of bacteria (Escherichia coli O13) | detection / labelling signal of bacteria [1] | detection / labelling signal of bacteria (Escherichia coli K12) | detection / labelling signal of bacteria [2]
1 | C=C(C[C@@H](O)[C@H]1OC(C)(C)O[C@@H]1[C@H](O)CN=[N+]=[N-])C(=O)OCC [Compound 8a, ethyl (4R)-4-{(4R,5R)-5-[(R)-2-azido-1-hydroxyethyl]-2,2-dimethyl-1,3-dioxolan-4-yl)-4-hydroxy-2-methylenebutanoate] | detected; also recorded: clear labelling signal | detected; also recorded: clear labelling signal | detected; also recorded: clear labelling signal | detected; also recorded: clear labelling signal
2 | C=C(C[C@H](O)[C@H]1OC(C)(C)O[C@@H]1[C@H](O)CN=[N+]=[N-])C(=O)OCC [Compound 8b, ethyl (4S)-4-{(4R,5R)-5-[(R)-2-azido-1-hydroxyethyl]-2,2-dimethyl-1,3-dioxolan-4-yl)-4-hydroxy-2-methylenebutanoate] | detected; also recorded: clear labelling signal | detected; also recorded: clear labelling signal | detected; also recorded: clear labelling signal | detected; also recorded: clear labelling signal
